Measured values as given in US8404738B2 (Hoffmann-La Roche Inc., priority 2011, dated 2013).

Key:
HDAC6 = target: T1, HDAC6 (Homo sapiens, UniProt Q9UBN7); assay: Tubulin acetylation cytoblot assay (A549 cells); assay type: cell-based; conditions: 17-18 h incubation, tubulin acetylation as marker of HDAC6 inhibition, read-out: Tub-Ac EC50
T1 construct: endogenous in cells; host or cells: A549 cells
T1 sequence (Q9UBN7 1-1215): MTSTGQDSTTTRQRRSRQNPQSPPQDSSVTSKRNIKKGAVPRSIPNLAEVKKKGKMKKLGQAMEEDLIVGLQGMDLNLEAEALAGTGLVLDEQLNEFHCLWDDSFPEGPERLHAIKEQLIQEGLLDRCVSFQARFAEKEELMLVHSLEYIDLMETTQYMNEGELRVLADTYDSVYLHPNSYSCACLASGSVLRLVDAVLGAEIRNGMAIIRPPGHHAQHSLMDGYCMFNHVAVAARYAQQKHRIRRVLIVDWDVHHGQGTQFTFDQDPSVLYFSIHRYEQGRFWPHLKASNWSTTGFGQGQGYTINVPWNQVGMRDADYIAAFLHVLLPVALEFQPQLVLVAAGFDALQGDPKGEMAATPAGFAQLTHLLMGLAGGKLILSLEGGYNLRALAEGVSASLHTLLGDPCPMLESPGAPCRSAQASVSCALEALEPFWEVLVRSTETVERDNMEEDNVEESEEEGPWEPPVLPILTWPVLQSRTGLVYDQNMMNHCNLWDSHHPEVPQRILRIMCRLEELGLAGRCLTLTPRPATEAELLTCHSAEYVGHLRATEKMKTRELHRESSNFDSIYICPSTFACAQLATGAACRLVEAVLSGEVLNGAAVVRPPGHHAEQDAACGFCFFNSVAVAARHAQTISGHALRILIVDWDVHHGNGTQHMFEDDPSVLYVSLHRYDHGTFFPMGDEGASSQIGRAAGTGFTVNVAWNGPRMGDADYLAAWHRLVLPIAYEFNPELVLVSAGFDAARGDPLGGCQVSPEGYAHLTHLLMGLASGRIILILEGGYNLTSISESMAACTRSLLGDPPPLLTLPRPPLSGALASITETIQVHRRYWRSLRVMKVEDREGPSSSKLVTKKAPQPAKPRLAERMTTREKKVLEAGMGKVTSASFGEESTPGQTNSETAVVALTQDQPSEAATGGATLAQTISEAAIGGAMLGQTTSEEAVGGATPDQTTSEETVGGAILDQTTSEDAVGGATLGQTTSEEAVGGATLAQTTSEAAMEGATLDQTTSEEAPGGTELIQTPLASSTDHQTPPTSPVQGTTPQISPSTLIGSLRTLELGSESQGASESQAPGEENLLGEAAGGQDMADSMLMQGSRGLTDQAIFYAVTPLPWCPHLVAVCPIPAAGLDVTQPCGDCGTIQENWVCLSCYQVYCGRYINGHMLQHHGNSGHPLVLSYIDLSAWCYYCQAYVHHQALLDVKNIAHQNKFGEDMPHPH
Description: Tubulin Acetylation Induction by Novel Compounds: Tubulin Acetylation Cytoblot Assay.
Tubulin acetylation is a PD marker for HDAC6 inhibition. The extent of tubulin acetylation represents the inhibitory effect on HDAC6.
Novel compounds were tested for their ability to inhibit HDAC6 using a cell-based deacetylation assay. Tubulin acetylation was detected by the anti-acetylated tubulin antibody (Sigma) and horse radish peroxidase (HRP) conjugated secondary antibody (KangChen Bio. Tech.). […] 20 μl of diluted compound solution was transferred to the cell culture plate and incubated for 17-18 h. After medium removal and fixation by formaldehyde (3.7% paraformaldehyde in TBS), the cells in the plates were treated with 180 μl of −20° C. MeOH and incubated for 5 min at rt. The cell lysis was incubated with 75 μl of primary anti-acetylated tubulin antibody and secondary HRP conjugated antibody solution (1:750 anti-acetylated tubulin, 1:750 HRP conjugated anti-mouse IgG in antibody dilution buffer not containing sodium azide) for 4 h at 4° C. By adding the HRP substrate, enhanced chemiluminescence (ECL) reagent (GE Healthcare) generated luminescence corresponding to the level of tubulin acetylation. So that 75 μl of ECL was added into the wells and the luminescence from each well was immediately quantified by the plate reader. Based on the luminescence reading, the Tub-Ac EC50s against HDAC6 of the tested compounds were calculated by plotting the curve with XLfit4.0 software. Inhibition %=[signal(sample)−Mean(bottom)]×100/[Mean(top)−Mean(bottom)]

[1] = tested on: p21 promoter-luciferase construct; assay: p21 reporter gene induction (HeLa cells, p21 promoter-luciferase construct); conditions: for p21 RP3: relative gene level of p21 compared to MS275 at 3 μM; for p21 RP10: relative level of p21 compared to MS275 at 10 μM; for p21 RP30: relative level of p21 compared to MS275 at 30 μM;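 on all read-outs here: transfected HeLa cells exposed to compound for 15 h, luciferase luminescence read from lysates, p21 promoter lacks p53 site, proxy for cellular HDAC1/2/3 inhibition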
recombinant human HDAC8 = target: T2, recombinant human HDAC8 (Homo sapiens, UniProt Q9BY41); assay: HDAC8 inhibition: recombinant HDAC8 fluorometric assay; assay type: biochemical; conditions: recombinant human HDAC8, substrate Ac-Arg-His-Lys-Lys(ε-acetyl)-AMC; read-out: HDAC8 IC50
T2 construct: made in house; host or cells: insect cells
T2 sequence (Q9BY41 1-377): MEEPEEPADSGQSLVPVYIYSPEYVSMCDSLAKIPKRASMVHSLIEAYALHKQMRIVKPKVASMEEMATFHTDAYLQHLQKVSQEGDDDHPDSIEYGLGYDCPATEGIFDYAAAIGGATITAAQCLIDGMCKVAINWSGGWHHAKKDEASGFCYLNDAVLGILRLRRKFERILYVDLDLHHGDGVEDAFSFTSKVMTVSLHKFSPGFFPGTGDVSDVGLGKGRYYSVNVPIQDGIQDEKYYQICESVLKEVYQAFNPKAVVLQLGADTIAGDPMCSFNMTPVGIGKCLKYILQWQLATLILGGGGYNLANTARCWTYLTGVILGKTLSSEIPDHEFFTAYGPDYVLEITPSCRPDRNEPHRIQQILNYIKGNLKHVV
Description: HDAC8 Inhibition by Novel Compounds: Recombinant HDAC8 Fluorometric Assay.
A competitive inhibitory assay of HDAC8 was carried out by using recombinant HDAC8 and a commercial substrate Ac-Arg-His-Lys-Lys(ε-acetyl)-AMC.
Compounds were tested for their ability to inhibit histone deacetylase 8 using an in vitro deacetylation assay. The enzyme source for this assay was recombinant human HDAC8 protein expressed and purified from insect cells. […] The substrate consisted of a commercial product Ac-Arg-His-Lys-Lys(ε-acetyl)-AMC (substrate is available from Cayman Chemical). […] 1 μl of half-log diluted compounds were added into wells and incubated for 15 min at rt. After that, 8 μl of substrate solution was transferred to the wells and incubated for 30 min at rt. After deacetylation of the substrate by incubation with HDAC8 enzyme, subsequent exposure to a developing reagent produced a fluorophore that was directly proportional to the level of deacetylation. […] The fluorescence signal was measured by a FlexStation3 plate reader (excitation wave length 340-360 nm; emission wave length 440-465 nm). The HDAC8 IC50 was calculated after normalization and curve fitting using XLfit4.0 software. Inhibition %=[Mean(top)−signal(sample)]×100/[Mean(top)−Mean(bottom)].

EC50 (HDAC6) [nM]	IC50 (recombinant human HDAC8) [nM]	Structure (SMILES)	p21 RP3 [1]	p21 RP10 [1]	p21 RP30 [1]
4020	840	O=C(NO)c1ccc(NC2CCN(c3ccccc3F)C2=O)cc1 (centres unmarked) [Example 2, 4-[1-(2-Fluoro-phenyl)-2-oxo-pyrrolidin-3-ylamino]-N-hydroxy-benzamide]	0.33	0.26	0.46
1560	1090	O=C(NO)c1ccc(NC2CCN(c3cccc(F)c3)C2=O)cc1 (centres unmarked) [Example 3, 4-[1-(3-Fluoro-phenyl)-2-oxo-pyrrolidin-3-ylamino]-N-hydroxy-benzamide]	0.18	0.06	0.08
3890	890	O=C(NO)c1ccc(NC2CCN(c3ccc(F)cc3)C2=O)cc1 (centres unmarked) [Example 4, 4-[1-(4-Fluoro-phenyl)-2-oxo-pyrrolidin-3-ylamino]-N-hydroxy-benzamide]	0.43	0.31	0.48
4120	590	COc1cccc(N2CCC(Nc3ccc(C(=O)NO)cc3)C2=O)c1 (centres unmarked) [Example 8, N-Hydroxy-4-[1-(3-methoxy-phenyl)-2-oxo-pyrrolidin-3-ylamino]-benzamide]	0.09	0.15	0.29
1730	1300	CC(C)Oc1cccc(N2CCC(Nc3ccc(C(=O)NO)cc3)C2=O)c1 (centres unmarked) [Example 9, N-Hydroxy-4-[1-(3-isopropoxy-phenyl)-2-oxo-pyrrolidin-3-ylamino]-benzamide]	0.24	0.13	0.23
2150	1800	CC(C)Oc1ccc(N2CCC(Nc3ccc(C(=O)NO)cc3)C2=O)cc1 (centres unmarked) [Example 10, N-Hydroxy-4-[1-(4-isopropoxy-phenyl)-2-oxo-pyrrolidin-3-ylamino]-benzamide]	0.07	0.05	0.05
8310	2230	O=C(NO)c1ccc(NC2CCN(c3cccc(C(F)(F)F)c3)C2=O)cc1 (centres unmarked) [Example 11, N-Hydroxy-4-[2-oxo-1-(3-trifluoromethyl-phenyl)-pyrrolidin-3-ylamino]-benzamide]	0.39	0.08	0.04
1530	740	CC(C)c1cccc(N2CCC(Nc3ccc(C(=O)NO)cc3)C2=O)c1 (centres unmarked) [Example 13, N-Hydroxy-4-[1-(3-isopropyl-phenyl)-2-oxo-pyrrolidin-3-ylamino]-benzamide]	0.29	0.19	0.09
2610	3180	CC(C)c1ccc(N2CCC(Nc3ccc(C(=O)NO)cc3)C2=O)cc1 (centres unmarked) [Example 14, N-Hydroxy-4-[1-(4-isopropyl-phenyl)-2-oxo-pyrrolidin-3-ylamino]-benzamide]	0.13	0.07	0.06
1060	1870	CC(C)(C)c1ccc(N2CCC(Nc3ccc(C(=O)NO)cc3)C2=O)cc1 (centres unmarked) [Example 16, 4-[1-(4-tert-Butyl-phenyl)-2-oxo-pyrrolidin-3-ylamino]-N-hydroxy-benzamide]	0.17	0.12	−0.03
4310	1620	N#Cc1cccc(N2CCC(Nc3ccc(C(=O)NO)cc3)C2=O)c1 (centres unmarked) [Example 18, 4-[1-(3-Cyano-phenyl)-2-oxo-pyrrolidin-3-ylamino]-N-hydroxy-benzamide]	0.61	0.02	−0.01
960	1210	O=C(NO)c1ccc(NC2CCN(c3ccc(F)c(Cl)c3)C2=O)cc1 (centres unmarked) [Example 20, 4-[1-(3-Chloro-4-fluoro-phenyl)-2-oxo-pyrrolidin-3-ylamino]-N-hydroxy-benzamide]	0.37	0.10	0.12

Structure (SMILES)	EC50 (HDAC6) [nM]	IC50 (recombinant human HDAC8) [nM]	p21 RP3 [1]	p21 RP10 [1]	p21 RP30 [1]
O=C(NO)c1ccc(NC2CCN(c3ccccc3Cl)C2=O)cc1 (centres unmarked) [Example 5, 4-[1-(2-Chloro-phenyl)-2-oxo-pyrrolidin-3-ylamino]-N-hydroxy-benzamide]	6670	370	−0.01	0.06	0.08
O=C(NO)c1ccc(NC2CCN(c3cccc(Cl)c3)C2=O)cc1 (centres unmarked) [Example 6, 4-[1-(3-Chloro-phenyl)-2-oxo-pyrrolidin-3-ylamino]-N-hydroxy-benzamide]	2820	720	0.03	0.15	0.15
CS(=O)(=O)c1ccc(N2CCC(Nc3ccc(C(=O)NO)cc3)C2=O)cc1 (centres unmarked) [Example 17, N-Hydroxy-4-[1-(4-methanesulfonyl-phenyl)-2-oxo-pyrrolidin-3-ylamino]-benzamide]	11900	1190	0.00	0.02	0.02
N#Cc1ccc(N2CCC(Nc3ccc(C(=O)NO)cc3)C2=O)cc1 (centres unmarked) [Example 19, 4-[1-(4-Cyano-phenyl)-2-oxo-pyrrolidin-3-ylamino]-N-hydroxy-benzamide]	3140	1050	0.46	0.00	−0.03
